# Laboratory results as given in PubChem BioAssay AID256 (DTP/NCI, 2004).
# Values joined by “and” are separate entries in the source; they are usually repeats but may differ in a detail not shown here. Identical values can stand only once. Inconclusive results and toxic doses are left out.
# Tested on: CD2F1 mice, L1210 leukemia ip, survival T/C
# Experiment: NCI In Vivo Anticancer Drug Screen. Data for tumor model L1210 Leukemia (intraperitoneal) in CD2F1 (CDF1) mice
# Settings: higher = longer survival
# Method in brief: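 Antitumor effect is scored in animals hosting a serially transplanted tumor. Values compare compound-dosed animals against vehicle-only controls as a simple quotient.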
structure (smiles),measurement,setting,value
O=C1c2ccccc2C(=O)c2c(NCCNCCO)ccc(NCCNCCO)c21,T/C,"endpoint: mean survival time, dose: 1.0 mg/kg/injection, schedule: Q01DX005 (iv), vehicle: clinical formulation",104 % of control
same,T/C,"endpoint: mean survival time, dose: 2.0 mg/kg/injection, schedule: Q01DX005 (iv), vehicle: saline",98 % of control
same,T/C,"endpoint: mean survival time, dose: 2.0 mg/kg/injection, schedule: Q01DX009 (ip), vehicle: saline",153 % of control
same,T/C,"endpoint: mean survival time, dose: 2.5 mg/kg/injection, schedule: Q01DX009 (ip), vehicle: saline",190 % of control
same,T/C,"endpoint: mean survival time, dose: 2.62 mg/kg/injection, schedule: Q01DX009 (ip), vehicle: saline",156 % of control
same,T/C,"endpoint: mean survival time, dose: 4.0 mg/kg/injection, schedule: Q01DX005 (iv), vehicle: clinical formulation",123 % of control
same,T/C,"endpoint: mean survival time, dose: 4.0 mg/kg/injection, schedule: Q01DX005 (oral), vehicle: acid diluted with saline",102 % of control
same,T/C,"endpoint: mean survival time, dose: 4.0 mg/kg/injection, schedule: Q01DX009 (ip), vehicle: clinical formulation",157 % of control
same,T/C,"endpoint: mean survival time, dose: 4.0 mg/kg/injection, schedule: Q01DX009 (ip), vehicle: saline",271 % of control
same,T/C,"endpoint: mean survival time, dose: 4.0 mg/kg/injection, schedule: Q04DX003 (ip), vehicle: water",284 % of control
same,T/C,"endpoint: mean survival time, dose: 5.0 mg/kg/injection, schedule: Q01DX009 (ip), vehicle: saline",156 % of control and 186 % of control
same,T/C,"endpoint: mean survival time, dose: 5.25 mg/kg/injection, schedule: Q01DX009 (ip), vehicle: saline",159 % of control
same,T/C,"endpoint: mean survival time, dose: 8.0 mg/kg/injection, schedule: Q01DX005 (iv), vehicle: clinical formulation",120 % of control
same,T/C,"endpoint: mean survival time, dose: 8.0 mg/kg/injection, schedule: Q01DX005 (iv), vehicle: saline",119 % of control
same,T/C,"endpoint: mean survival time, dose: 8.0 mg/kg/injection, schedule: Q01DX005 (oral), vehicle: acid diluted with saline",98 % of control
same,T/C,"endpoint: mean survival time, dose: 8.0 mg/kg/injection, schedule: Q01DX005 (oral), vehicle: saline",101 % of control
same,T/C,"endpoint: mean survival time, dose: 8.0 mg/kg/injection, schedule: Q01DX009 (ip), vehicle: clinical formulation",346 % of control
same,T/C,"endpoint: mean survival time, dose: 8.0 mg/kg/injection, schedule: Q01DX009 (ip), vehicle: saline",281 % of control
same,T/C,"endpoint: mean survival time, dose: 8.0 mg/kg/injection, schedule: Q01DX009 (ip), vehicle: water",163 % of control and 166 % of control
same,T/C,"endpoint: mean survival time, dose: 8.0 mg/kg/injection, schedule: Q04DX003 (ip), vehicle: water",261 % of control
same,T/C,"endpoint: mean survival time, dose: 10.0 mg/kg/injection, schedule: Q01DX009 (ip), vehicle: saline",218 % of control and 219 % of control
same,T/C,"endpoint: mean survival time, dose: 10.5 mg/kg/injection, schedule: Q01DX009 (ip), vehicle: saline",228 % of control
same,T/C,"endpoint: mean survival time, dose: 11.7 mg/kg/injection, schedule: Q01DX001 (iv), vehicle: saline",98 % of control
same,T/C,"endpoint: mean survival time, dose: 16.0 mg/kg/injection, schedule: Q01DX005 (ip), vehicle: saline",170 % of control
same,T/C,"endpoint: mean survival time, dose: 16.0 mg/kg/injection, schedule: Q01DX005 (iv), vehicle: clinical formulation",164 % of control
same,T/C,"endpoint: mean survival time, dose: 16.0 mg/kg/injection, schedule: Q01DX005 (oral), vehicle: saline",101 % of control
same,T/C,"endpoint: mean survival time, dose: 16.0 mg/kg/injection, schedule: Q01DX009 (ip), vehicle: clinical formulation",461 % of control
same,T/C,"endpoint: mean survival time, dose: 16.0 mg/kg/injection, schedule: Q01DX009 (ip), vehicle: saline",529 % of control
same,T/C,"endpoint: mean survival time, dose: 16.0 mg/kg/injection, schedule: Q01DX009 (ip), vehicle: water",153 % of control and 183 % of control
same,T/C,"endpoint: mean survival time, dose: 19.4 mg/kg/injection, schedule: Q01DX001 (iv), vehicle: saline",102 % of control
same,T/C,"endpoint: mean survival time, dose: 20.0 mg/kg/injection, schedule: Q01DX009 (ip), vehicle: saline",158 % of control and 219 % of control
same,T/C,"endpoint: mean survival time, dose: 32.0 mg/kg/injection, schedule: Q01DX005 (ip), vehicle: saline",263 % of control
same,T/C,"endpoint: mean survival time, dose: 32.0 mg/kg/injection, schedule: Q01DX005 (iv), vehicle: saline",150 % of control
same,T/C,"endpoint: mean survival time, dose: 32.0 mg/kg/injection, schedule: Q01DX005 (oral), vehicle: acid diluted with saline",98 % of control
same,T/C,"endpoint: mean survival time, dose: 32.0 mg/kg/injection, schedule: Q01DX005 (oral), vehicle: saline",103 % of control
same,T/C,"endpoint: mean survival time, dose: 32.0 mg/kg/injection, schedule: Q01DX009 (ip), vehicle: clinical formulation",96 % of control
same,T/C,"endpoint: mean survival time, dose: 32.0 mg/kg/injection, schedule: Q01DX009 (ip), vehicle: water",92 % of control
same,T/C,"endpoint: mean survival time, dose: 32.0 mg/kg/injection, schedule: Q04DX003 (ip), vehicle: saline",160 % of control
same,T/C,"endpoint: mean survival time, dose: 32.4 mg/kg/injection, schedule: Q01DX001 (ip), vehicle: saline",158 % of control and 160 % of control
same,T/C,"endpoint: mean survival time, dose: 32.4 mg/kg/injection, schedule: Q01DX001 (iv), vehicle: saline",117 % of control
same,T/C,"endpoint: mean survival time, dose: 40.0 mg/kg/injection, schedule: Q01DX009 (ip), vehicle: saline",91 % of control and 96 % of control
same,T/C,"endpoint: mean survival time, dose: 42.0 mg/kg/injection, schedule: Q01DX009 (ip), vehicle: saline",90 % of control
same,T/C,"endpoint: mean survival time, dose: 54.0 mg/kg/injection, schedule: Q01DX001 (ip), vehicle: saline",150 % of control and 160 % of control
same,T/C,"endpoint: mean survival time, dose: 64.0 mg/kg/injection, schedule: Q01DX005 (ip), vehicle: saline",89 % of control
same,T/C,"endpoint: mean survival time, dose: 64.0 mg/kg/injection, schedule: Q01DX005 (oral), vehicle: acid diluted with saline",92 % of control
same,T/C,"endpoint: mean survival time, dose: 64.0 mg/kg/injection, schedule: Q01DX009 (ip), vehicle: water",90 % of control
same,T/C,"endpoint: mean survival time, dose: 64.0 mg/kg/injection, schedule: Q04DX003 (ip), vehicle: saline",289 % of control
same,T/C,"endpoint: mean survival time, dose: 90.0 mg/kg/injection, schedule: Q01DX001 (ip), vehicle: saline",182 % of control
same,T/C,"endpoint: mean survival time, dose: 128.0 mg/kg/injection, schedule: Q01DX005 (oral), vehicle: acid diluted with saline",100 % of control
same,T/C,"endpoint: mean survival time, dose: 128.0 mg/kg/injection, schedule: Q04DX003 (ip), vehicle: saline",247 % of control
same,T/C,"endpoint: mean survival time, dose: 150.0 mg/kg/injection, schedule: Q01DX001 (ip), vehicle: saline",221 % of control and 98 % of control
same,T/C,"endpoint: median survival time, dose: 0.25 mg/kg/injection, schedule: Q01DX005 (iv), vehicle: clinical formulation",97 % of control
same,T/C,"endpoint: median survival time, dose: 0.25 mg/kg/injection, schedule: Q01DX005 (iv), vehicle: water",102 % of control
same,T/C,"endpoint: median survival time, dose: 0.25 mg/kg/injection, schedule: Q01DX009 (ip), vehicle: water",118 % of control
same,T/C,"endpoint: median survival time, dose: 0.5 mg/kg/injection, schedule: Q01DX005 (iv), vehicle: clinical formulation",97 % of control
same,T/C,"endpoint: median survival time, dose: 0.5 mg/kg/injection, schedule: Q01DX005 (iv), vehicle: water",98 % of control
same,T/C,"endpoint: median survival time, dose: 0.5 mg/kg/injection, schedule: Q01DX009 (ip), vehicle: clinical formulation",121 % of control
same,T/C,"endpoint: median survival time, dose: 1.0 mg/kg/injection, schedule: Q01DX005 (iv), vehicle: clinical formulation",102 % of control
same,T/C,"endpoint: median survival time, dose: 1.0 mg/kg/injection, schedule: Q01DX005 (iv), vehicle: water",97 % of control
same,T/C,"endpoint: median survival time, dose: 2.0 mg/kg/injection, schedule: Q01DX005 (iv), vehicle: clinical formulation",97 % of control
same,T/C,"endpoint: median survival time, dose: 2.0 mg/kg/injection, schedule: Q01DX005 (iv), vehicle: water",102 % of control
same,T/C,"endpoint: median survival time, dose: 2.0 mg/kg/injection, schedule: Q01DX009 (ip), vehicle: Klucel (hydroxypropylcellulose) (HPC)",151 % of control
same,T/C,"endpoint: median survival time, dose: 4.0 mg/kg/injection, schedule: Q01DX005 (iv), vehicle: clinical formulation",115 % of control
same,T/C,"endpoint: median survival time, dose: 4.0 mg/kg/injection, schedule: Q01DX009 (ip), vehicle: Klucel (hydroxypropylcellulose) (HPC)",197 % of control
same,T/C,"endpoint: median survival time, dose: 4.0 mg/kg/injection, schedule: Q01DX009 (ip), vehicle: clinical formulation",160 % of control
same,T/C,"endpoint: median survival time, dose: 4.0 mg/kg/injection, schedule: Q01DX009 (ip), vehicle: water",156 % of control
same,T/C,"endpoint: median survival time, dose: 4.0 mg/kg/injection, schedule: Q01DX009 (sc), vehicle: Klucel (hydroxypropylcellulose) (HPC)",120 % of control
same,T/C,"endpoint: median survival time, dose: 4.0 mg/kg/injection, schedule: Q01DX009 (sc), vehicle: water",112 % of control
same,T/C,"endpoint: median survival time, dose: 8.0 mg/kg/injection, schedule: Q01DX009 (ip), vehicle: Klucel (hydroxypropylcellulose) (HPC)",156 % of control and 182 % of control
same,T/C,"endpoint: median survival time, dose: 8.0 mg/kg/injection, schedule: Q01DX009 (ip), vehicle: clinical formulation",196 % of control
same,T/C,"endpoint: median survival time, dose: 8.0 mg/kg/injection, schedule: Q01DX009 (ip), vehicle: water",177 % of control
same,T/C,"endpoint: median survival time, dose: 16.0 mg/kg/injection, schedule: Q01DX005 (iv), vehicle: water",155 % of control
same,T/C,"endpoint: median survival time, dose: 16.0 mg/kg/injection, schedule: Q01DX005 (oral), vehicle: Klucel (hydroxypropylcellulose) (HPC)",104 % of control
same,T/C,"endpoint: median survival time, dose: 16.0 mg/kg/injection, schedule: Q01DX009 (ip), vehicle: Klucel (hydroxypropylcellulose) (HPC)",170 % of control and 188 % of control
same,T/C,"endpoint: median survival time, dose: 16.0 mg/kg/injection, schedule: Q01DX009 (ip), vehicle: clinical formulation",238 % of control
same,T/C,"endpoint: median survival time, dose: 16.0 mg/kg/injection, schedule: Q01DX009 (ip), vehicle: water",262 % of control
same,T/C,"endpoint: median survival time, dose: 16.0 mg/kg/injection, schedule: Q01DX009 (sc), vehicle: Klucel (hydroxypropylcellulose) (HPC)",174 % of control
same,T/C,"endpoint: median survival time, dose: 16.0 mg/kg/injection, schedule: Q01DX009 (sc), vehicle: water",164 % of control
same,T/C,"endpoint: median survival time, dose: 32.0 mg/kg/injection, schedule: Q01DX005 (iv), vehicle: clinical formulation",180 % of control
same,T/C,"endpoint: median survival time, dose: 32.0 mg/kg/injection, schedule: Q01DX005 (iv), vehicle: water",174 % of control
same,T/C,"endpoint: median survival time, dose: 32.0 mg/kg/injection, schedule: Q01DX005 (oral), vehicle: Klucel (hydroxypropylcellulose) (HPC)",104 % of control
same,T/C,"endpoint: median survival time, dose: 32.0 mg/kg/injection, schedule: Q01DX009 (ip), vehicle: Klucel (hydroxypropylcellulose) (HPC)",197 % of control and 365 % of control
same,T/C,"endpoint: median survival time, dose: 32.0 mg/kg/injection, schedule: Q01DX009 (ip), vehicle: clinical formulation",115 % of control
same,T/C,"endpoint: median survival time, dose: 32.0 mg/kg/injection, schedule: Q01DX009 (ip), vehicle: water",101 % of control
same,T/C,"endpoint: median survival time, dose: 32.0 mg/kg/injection, schedule: Q01DX009 (sc), vehicle: water",172 % of control
same,T/C,"endpoint: median survival time, dose: 64.0 mg/kg/injection, schedule: Q01DX009 (sc), vehicle: Klucel (hydroxypropylcellulose) (HPC)",96 % of control
same,T/C,"endpoint: median survival time, dose: 64.0 mg/kg/injection, schedule: Q01DX009 (sc), vehicle: water",101 % of control
same,T/C,"endpoint: median survival time, dose: 1024.0 mg/kg/injection, schedule: Q01DX005 (oral), vehicle: Klucel (hydroxypropylcellulose) (HPC)",91 % of control
